{
  "source": "patent US8124639B2",
  "about": "“Bicyclic [3.1.0] heteroaryl amides as type 1 glycine transport inhibitors” (Pfizer Inc., priority 2005, dated 2012)",
  "origin": "cited, not measured here",
  "tested_on": "NMDA receptor",
  "details": "effect blocked by a specific NMDA-site antagonist and a glycine-site antagonist",
  "data": [
    {"compound": "CN(CCC(Oc1ccc(-c2ccccc2)cc1)c1ccc(F)cc1)CC(=O)O", "note": "(stereo not shown) [NFPS]", "values": [
      {"measurement": "effect on postsynaptic current driven by the NMDA receptor", "value": "increased the postsynaptic current driven by the NMDA receptor"}
    ]}
  ]
}
